A short description of data set [1]: log P (pH 2.7) given with the preparation examples. To be noted: for logP: pH 2.7, pH 2.7. It is filed as physicochemical.
Another data set concerns Phytophthora infestans. It is filed as in vivo. Particulars: tomato young plants, protective spray, active ingredient concentration 10 ppm, evaluation 3 days after inoculation; 0% = control, 100% = no infection.

For the compound `O=C(OC1CCCCC1Cl)C1CC(c2csc(C3CCN(C(=O)Cn4nc(C(F)F)cc4C(F)F)CC3)n2)=NO1` (stereo not drawn) [Example I-5, 2-Chlorocyclohexyl 3-[2-(1-{[3,5-bis(difluoromethyl)-1H-pyrazol-1-yl]acetyl}piperidin-4-yl)-1,3-thiazol-4-yl]-4,5-dihydro-1,2-oxazole-5-carboxylate], the logP in data set [1] (reversed-phase HPLC column (C18)) turned out to be 3.43. Further, the “Eff (efficacy)” value with Phytophthora infestans is given as 93%. In addition, the chromatographic logP is 3.42 in “physchem” (pH 2.3) and 3.5 in the data set “physchem” (pH 7.8).
Compound `CCOC(=O)C1CC(c2csc(C3CCN(C(=O)OC(C)(C)C)CC3)n2)=NO1` (stereo not drawn) [B, tert-Butyl 4-{4-[5-(ethoxycarbonyl)-4,5-dihydro-1,2-oxazol-3-yl]-1,3-thiazol-2-yl}piperidine-1-carboxylate] returned a logP in data set [1] of 3.14.
As for `CC(C)(C)OC(=O)N1CCC(c2nc(C=NO)cs2)CC1` [A, tert-Butyl 4-{4-[(hydroxyimino)methyl]-1,3-thiazol-2-yl}piperidine-1-carboxylate], the “log P (pH 2.7)” value in data set [1] (pH 2.7) is listed as 2.38. This compound also returned a logP in data set [1] of 2.25.
As to `COC(=O)C1CC(c2csc(C3CCN(C(=O)Cn4nc(C(F)F)cc4C(F)F)CC3)n2)=NO1` (stereo not drawn) [Example I-1, methyl 3-[2-(1-{[3,5-bis(difluoromethyl)-1H-pyrazol-1-yl]acetyl}piperidin-4-yl)-1,3-thiazol-4-yl]-4,5-dihydro-1,2-oxazole-5-carboxylate], in data set [1], the logP is 2.26. The “Eff (efficacy)” value in the data set on Phytophthora infestans turned out to be 75%. Besides, the chromatographic logP in “physchem” (pH 2.3) and in the data set “physchem” (pH 7.8) was 2.28 throughout.
Compound `O=C(O)C1CC(c2csc(C3CCN(C(=O)Cn4nc(C(F)F)cc4C(F)F)CC3)n2)=NO1` (stereo not drawn) [D, 3-[2-(1-{[3,5-Bis(difluoromethyl)-1H-pyrazol-1-yl]acetyl}piperidin-4-yl)-1,3-thiazol-4-yl]-4,5-dihydro-1,2-oxazole-5-carboxylic acid] had a logP in data set [1] of 1.77.

Values taken from patent US9204649B2 (priority 2011, dated 2015).
